Patent US20240279221A1, “HETEROCYCLIC COMPOUNDS AND METHODS OF USE” (Schrödinger, Inc., priority 2021, published 2024)

Experiments:
human SOS1 = human SOS1 (Homo sapiens (Human), UniProt Q07889); assay: Surface Plasmon Resonance (SPR) SOS1 Binding Assay; conditions: biotinylated SOS1 (res. 564-1049), 25° C., kinetic or steady state fit, read-out: KD for hSOS1
Protocol: Binding to SOS1 was measured using a SPR assay with purified recombinant human SOS1 substrate (res. 564-1049 with N-terminal Avi tag; purified and biotinylated based on Hillig, et al., Proc Natl Acad Sci USA (2019); 116(7):2551-2560). SPR measurements were performed on a Biacore 8K SPR instrument (GE Healthcare, Sweden). Assays were performed at 25° C. using Series S SA sensor chips pre-coated with streptavidin (GE Healthcare, Cat. BR100531). Biotinylated SOS1 diluted in sample buffer (20 mM Tris HCl, 150 mM NaCl, 1 mM DTT, 0.05% TWEEN 20, 1 mM MgCl2, pH 8.0) was captured to one flow cell of the chip to about 3,000 resonance units (RU) using sample buffer supplemented with 5% DMSO as a running buffer. Serial dilutions of the assayed compounds in the running buffer at 100, 50 or 0.5 μM were injected for 60 s at a flow rate of 30 μL/min and association phases were recorded. Dissociation of the samples was monitored for 600 s. Data processing was performed using Biacore Insight Software (Biacore, GE Healthcare). Sensorgrams recorded on a SA flow cell without captured protein were subtracted from sensorgrams recorded on the SOS1 surface. Blank injections of running buffer were used for double referencing and solvent correction was applied to all sample sensorgrams to correct for buffer mismatches. KDs were estimated using a kinetic or steady state, where applicable, fitting model describing a reversible equilibrium with 1:1 binding between SOS1 and the compound.

[1] = target: SOS1:KRAS (G12C) interaction (Homo sapiens (Human), UniProt Q07889); assay: SOS1-KRas(G12C) FRET Assay; format: binding; conditions: 0.5 nM His10-SOS1 (res. 564-1049), 2.5 nM GST-KRAS (res. 1-169, G12C); read-out: SOS-KRas(G12C) FRET IC50
SOS1:KRAS (G12C) interaction, sequence (Q07889 564-1049, stated change not applied): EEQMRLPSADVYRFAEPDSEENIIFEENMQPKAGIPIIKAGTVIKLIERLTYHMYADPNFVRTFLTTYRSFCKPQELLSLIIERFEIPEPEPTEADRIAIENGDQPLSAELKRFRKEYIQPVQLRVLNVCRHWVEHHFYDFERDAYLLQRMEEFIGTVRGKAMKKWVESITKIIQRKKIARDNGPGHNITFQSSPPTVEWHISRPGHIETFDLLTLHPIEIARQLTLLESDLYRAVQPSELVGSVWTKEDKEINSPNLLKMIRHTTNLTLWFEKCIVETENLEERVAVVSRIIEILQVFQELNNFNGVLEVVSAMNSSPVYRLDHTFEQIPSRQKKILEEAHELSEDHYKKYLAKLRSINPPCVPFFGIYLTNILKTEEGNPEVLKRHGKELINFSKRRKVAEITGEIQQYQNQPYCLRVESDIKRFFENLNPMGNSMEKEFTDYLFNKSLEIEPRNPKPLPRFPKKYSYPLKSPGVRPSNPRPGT
Method in brief: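 TR-FRET measured binding of His10-SOS1 (res. 564-1049, 0.5 nM) to GST-KRAS G12C (res. 1-169, 2.5 nM), with anti-GST-Eu(K) and anti-6His-XL665 labels, in PBS with BSA, MgCl2, KF and DTT; 0.5% DMSO. Compound and SOS1 were pre-incubated 15 min at 25° C, KRAS was added, and the plate was read at 665/615 nm after 2 h at RT. IC50 and Hill slope came from non-linear regression.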

human SOS1, sequence (Q07889 564-1049): as the sequence (Q07889 564-1049, stated change not applied) above

Row | Compound | Kd (human SOS1) [nM] | IC50 [1] [nM]
1 | COC1(C)CN(CCn2nc(N[C@H](C)c3cccc(C(F)(F)F)c3C)c3cn(C4CC4)c(=O)cc3c2=O)C1 [Example 78, (R)-6-cyclopropyl-2-(2-(3-methoxy-3-methylazetidin-1-yl)ethyl)-4-((1-(2-methyl-3-(trifluoromethyl)phenyl)ethyl)amino)-2,6-dihydropyrido[3,4-d]pyridazine-1,7-dione] | 55 | 89
2 | C[C@@H](Nc1nn(C)c(=O)c2cc(=O)n([C@@H]3CCOC[C@@H]3F)cc12)c1cccc(C(F)F)c1F (single isomer, unassigned) [Example 32] | 229 | 1050
3 | C[C@@H](Nc1nn(C)c(=O)c2c(Br)c(=O)n(C3(C(F)F)CC3)cc12)c1cccc(C(F)F)c1F [Example 72, (R)-8-bromo-4-((1-(3-(difluoromethyl)-2-fluorophenyl)ethyl)amino)-6-(1-(difluoromethyl)cyclopropyl)-2-methyl-2,6-dihydropyrido[3,4-d]pyridazine-1,7-dione] | 60 | 68.3
4 | Cc1c(=O)n(C2(C(F)F)CC2)cc2c(N[C@H](C)c3cccc(C(F)F)c3F)nn(C)c(=O)c12 [Example 74, (R)-4-((1-(3-(difluoromethyl)-2-fluorophenyl)ethyl)amino)-6-(1-(difluoromethyl)cyclopropyl)-2,8-dimethyl-2,6-dihydropyrido[3,4-d]pyridazine-1,7-dione] | 69 | 91
5 | Cc1c([C@@H](C)Nc2nn(C)c(=O)c3cc(=O)n([C@@]4(C)CCOC4)cc23)cccc1C(F)(F)F (single isomer, unassigned) [Example 54] | 125 | 285
6 | C[C@@H](Nc1nn(C)c(=O)c2cc(=O)n(C3CCOCC3)cc12)c1cccc2sccc12 [Example 62, (R)-4-((1-(benzo[b]thiophen-4-yl)ethyl)amino)-2-methyl-6-(tetrahydro-2H-pyran-4-yl)-2,6-dihydropyrido[3,4-d]pyridazine-1,7-dione] | 13 | 75.3
7 | Cc1c([C@@H](C)Nc2nn(C)c(=O)c3cc(=O)n(C4CCOCC4)cc23)cccc1C(F)(F)F [Example 4, (R)-2-methyl-4-((1-(2-methyl-3-(trifluoromethyl)phenyl)ethyl)amino)-6-(tetrahydro-2H-pyran-4-yl)-2,6-dihydropyrido[3,4-d]pyridazine-1,7-dione] | 22 | 54.6
8 | CNCc1ccccc1-c1csc([C@@H](C)Nc2nn(C)c(=O)c3cc(=O)n(C4CC4)cc23)c1 [Example 57, (R)-6-cyclopropyl-2-methyl-4-((1-(4-(2-((methylamino)methyl)phenyl)thiophen-2-yl)ethyl)amino)-2,6-dihydropyrido[3,4-d]pyridazine-1,7-dione] | 8 | 21.9
9 | C[C@@H](Nc1nn(C)c(=O)c2cc(=O)n(C3CCOCC3)cc12)c1cccc(C(F)F)c1F [Example 18, (R)-4-((1-(3-(difluoromethyl)-2-fluorophenyl)ethyl)amino)-2-methyl-6-(tetrahydro-2H-pyran-4-yl)-2,6-dihydropyrido[3,4-d]pyridazine-1,7-dione] | 16 | 53.8
10 | C[C@@H](Nc1nn(C)c(=O)c2cc(=O)n(C3CCOCC3)cc12)c1cccc(C(C)(F)F)c1F [Example 36, (R)-4-((1-(3-(1,1-difluoroethyl)-2-fluorophenyl)ethyl)amino)-2-methyl-6-(tetrahydro-2H-pyran-4-yl)-2,6-dihydropyrido[3,4-d]pyridazine-1,7-dione] | 16 | 33.3
11 | C[C@@H](Nc1nn(C)c(=O)c2cc(=O)n([C@H]3CCOC[C@@H]3F)cc12)c1cccc(C(F)F)c1F (single isomer, unassigned) [Example 30] | 9 | 20.7
12 | C[C@@H](Nc1nn(C)c(=O)c2cc(=O)n(C3CCOCC3)cc12)c1cccc2c1CCC2(F)F [Example 67, (R)-4-((1-(1,1-difluoro-2,3-dihydro-1H-inden-4-yl)ethyl)amino)-2-methyl-6-(tetrahydro-2H-pyran-4-yl)pyrido[3,4-d]pyridazine-1,7(2H,6H)-dione] | 10 | 24.6
13 | COc1c(=O)n([C@@H]2CCOC[C@H]2F)cc2c(N[C@H](C)c3cccc(C(F)F)c3F)nn(C)c(=O)c12 (single isomer, unassigned) [Example 61] | 10 | 25.9
14 | Cc1c([C@@H](C)Nc2nn(C)c(=O)c3c(C)c(=O)n(C4CC4)cc23)cccc1C(F)(F)F [Example 7, (R)-6-cyclopropyl-2,8-dimethyl-4-((1-(2-methyl-3-(trifluoromethyl)phenyl)ethyl)amino)-2,6-dihydropyrido[3,4-d]pyridazine-1,7-dione] | 259 | 1050
15 | C[C@@H](Nc1nn(C)c(=O)c2cc(=O)n(C3CCOCC3)cc12)c1cccc(C(F)(F)F)c1 [Example 5, (R)-2-methyl-6-(tetrahydro-2H-pyran-4-yl)-4-((1-(3-(trifluoromethyl)phenyl)ethyl)amino)-2,6-dihydropyrido[3,4-d]pyridazine-1,7-dione] | 22 | 96.4
16 | Cc1c([C@@H](C)Nc2nn(C)c(=O)c3cc(=O)n([C@H]4C[C@H](O)C4)cc23)cccc1C(F)(F)F [Example 13, 6-((1r,3r)-3-hydroxycyclobutyl)-2-methyl-4-(((R)-1-(2-methyl-3-(trifluoromethyl)phenyl)ethyl)amino)-2,6-dihydropyrido[3,4-d]pyridazine-1,7-dione] | 25 | 99.6
17 | Cc1c([C@@H](C)Nc2nn(C)c(=O)c3c(Cl)c(=O)n(C4CC4)cc23)cccc1C(F)(F)F [Example 11, (R)-8-chloro-6-cyclopropyl-2-methyl-4-((1-(2-methyl-3-(trifluoromethyl)phenyl)ethyl)amino)-2,6-dihydropyrido[3,4-d]pyridazine-1,7-dione] | 95 | 592
18 | CCOc1c(=O)n(C2CC2)cc2c(N[C@H](C)c3cccc(C(F)(F)F)c3C)nn(C)c(=O)c12 [Example 19, (R)-6-cyclopropyl-8-ethoxy-2-methyl-4-((1-(2-methyl-3-(trifluoromethyl)phenyl)ethyl)amino)-2,6-dihydropyrido[3,4-d]pyridazine-1,7-dione] | 161 | 806
19 | Cc1c([C@@H](C)Nc2nn(C)c(=O)c3cc(=O)n([C@H]4C[C@H](n5ccnc5)C4)cc23)cccc1C(F)(F)F [Example 29, 6-((1r,3R)-3-(1H-imidazol-1-yl)cyclobutyl)-2-methyl-4-(((R)-1-(2-methyl-3-(trifluoromethyl)phenyl)ethyl)amino)-2,6-dihydropyrido[3,4-d]pyridazine-1,7-dione] | 42 | 61.9
20 | C[C@@H](Nc1nn(C)c(=O)c2cc(=O)n(C3CC3)cc12)c1cccc(C(F)(F)C(C)(C)O)c1F [Example 42, (R)-6-cyclopropyl-4-((1-(3-(1,1-difluoro-2-hydroxy-2-methylpropyl)-2-fluorophenyl)ethyl)amino)-2-methyl-2,6-dihydropyrido[3,4-d]pyridazine-1,7-dione] | 34 | 54.9
21 | CC(=O)N1CCC(n2cc3c(N[C@H](C)c4cccc(C(F)(F)F)c4C)nn(C)c(=O)c3cc2=O)CC1 [Example 9, (R)-6-(1-acetylpiperidin-4-yl)-2-methyl-4-((1-(2-methyl-3-(trifluoromethyl)phenyl)ethyl)amino)-2,6-dihydropyrido[3,4-d]pyridazine-1,7-dione] | 64 | 286
22 | Cc1c([C@@H](C)Nc2nn(CCN)c(=O)c3cc(=O)n(C4CC4)cc23)cccc1C(F)(F)F [Example 24, (R)-2-(2-aminoethyl)-6-cyclopropyl-4-((1-(2-methyl-3-(trifluoromethyl)phenyl)ethyl)amino)-2,6-dihydropyrido[3,4-d]pyridazine-1,7-dione] | 34 | 239
23 | COc1c(=O)n([C@H]2CCOC[C@@H]2F)cc2c(N[C@H](C)c3cccc(C(F)F)c3F)nn(C)c(=O)c12 (single isomer, unassigned) [Example 60] | 43 | 129
24 | C[C@@H](Nc1nn(C)c(=O)c2cc(=O)n(C3CC3)cc12)c1ccc2c(C#N)nn(C)c2c1 (single isomer, unassigned) [Example 25] | 225 | 3860
25 | Cc1c([C@@H](C)Nc2nn(CCO)c(=O)c3cc(=O)n(C4CC4)cc23)cccc1C(F)(F)F [Example 77, (R)-6-cyclopropyl-2-(2-hydroxyethyl)-4-((1-(2-methyl-3-(trifluoromethyl)phenyl)ethyl)amino)-2,6-dihydropyrido[3,4-d]pyridazine-1,7-dione] | 61 | 305
